We go through 6 compounds from paper PMC13091788 (NPJ Aging, 2026).

Each structure is given as a SMILES string. Counter-ions that a name gives are not always drawn.

The subject of data set [1] is MITOL and mitochondrial proteins in C2C12 myoblasts. The experiment in a line: Western blot of mitochondrial proteins in C2C12 myoblasts. Format: cell-based, mouse. To be noted: 48 h. Here is the method: (§1) Murine myoblast C2C12 cells were used for various cellular experiments in this study. Two different sources of C2C12 cells were used depending on the experiment: C2C12 cells obtained from RIKEN BRC (RCB0987) were used for gene expression, mtDNA quantification, and mitochondrial morphology analysis; C2C12 cells from ATCC (CRL-1772) were used for OCR analysis. Cells were cultured in Dulbecco’s Modified Eagle Medium (DMEM; Sigma-Aldrich or Nacalai Tesque), supplemented with 10% FBS and 1% penicillin–streptomycin. Cells were maintained in a humidified incubator at 37°C with 5% CO2.
(§2) For cellular experiments, berberine or quinoid-type berberrubine (Q-BRB) was dissolved in DMSO, and berberrubine acetic acid adduct (AcA-BRB) was dissolved in distilled H2O. Each compound was diluted in culture medium to the indicated final concentrations.
Proteins in sample buffer were separated by SDS-PAGE and transferred to Immobilon-P PVDF membranes (IPVH00010, Millipore). Blots were probed with the indicated antibodies, and protein bands on the blot were visualized using Chemi-Lumi One L (07880-70, Nacalai Tesque) or Immobilon Western Chemiluminescent HRP Substrate (WBKLS0500, Millipore). Band images were captured using a LuminoGraph I imager (WSE-6100, ATTO). Relative band intensities were quantified using Fiji/ImageJ software. Unprocessed western blot images corresponding to the data presented in the main and supplementary figures are provided in Supplementary Figures 11–16.

The test system of data set [2] is MITOL and Tom20 mRNA in C2C12 cells. The experiment in a line: qRT-PCR analysis of C2C12 cells. Format: cell-based, mouse. To be noted: C2C12, 5 μM or 10 μM. Here is the method:
as §1, §2
Total RNA was extracted from C2C12 cells using an RNA extraction kit (RNeasy Mini Kit, Qiagen). After washing with PBS, cells were collected by trypsinization and centrifugation at 500 × g for 5 min, and the pellet was lysed according to the manufacturer’s instructions. The extracted RNA was reverse-transcribed into cDNA using a reverse transcription kit (ReverTra Ace, TOYOBO). Quantitative real-time PCR was performed using a qPCR master mix (KAPA SYBR FAST qPCR Master Mix (2X) Kit, KAPABIOSYSTEMS) and a thermal cycler (StepOnePlus, Applied Biosystems). Gene expression levels were normalized to GAPDH. Primer sets used for qRT-PCR are listed in Supplementary Table 1.

The next data set relates to C2C12 cells. Put plainly: Quantification of mitochondrial DNA (mtDNA/nDNA ratio). Conditions: C2C12, 10 μM. Type of data set: cell-based, mouse. Here is the method:
as §1
To generate mMITOL-knockout C2C12 cells, CRISPR-Cas9 vectors were constructed. Single-guide RNAs (sgRNAs) targeting the mouse MITOL gene were designed using the online tool CRISPOR (http://crispor.org). The oligonucleotide pair corresponding to the mMITOL guide RNA (gRNA sequence, 5′-[…]-3′) was annealed and ligated into the PX459 vector (48139, Addgene). C2C12 cells were transfected using Lipofectamine 3000 (Thermo Fisher Scientific), and knockout clones were selected by serial dilution.
To assess mitochondrial DNA (mtDNA) content, the mtDNA/nuclear DNA (nDNA) ratio was determined by extracting DNA from C2C12 cells using the NucleoSpin Tissue Kit (Takara Bio), followed by real-time quantitative PCR analysis with specific primer sets for mtDNA (16S rRNA or ND1) and nDNA (Hexokinase 2; HK2) (Supplementary Table 2). Real-time quantitative PCR was performed using TB Green Premix Ex Taq II (Takara Bio) and a Thermal Cycler Dice Real-Time System (Takara Bio). The analysis of mtDNA/nDNA ratios was conducted using the ΔΔCt method as previously described.

Data set [3] in a line: Water solubility, roughly examined. Type of data set: physicochemical. To be noted: roughly examined. Here is the method:
Finally, we compared the water solubility of the three berberrubine forms. The solubility of three compounds, the reddish-black solid (quinoid-type berberrubine), the reddish-brown solid (berberrubine acetic acid salt), and the yellow solid (berberrubine acetic acid adduct), in water was roughly examined. […] On the other hand, the reddish-brown solid dissolved in about 30 mg in 1 mL of water.

Another data set is described as follows: PAMPA assay. Format: in vitro ADME. To be noted: read-out: permeability of reference compounds. Here is the method:
To determine the passive membrane diffusion rates, Corning Gentest Pre-coated PAMPA Plate System was used. The acceptor plate was prepared by adding 200 μL of 0.1 M phosphate buffer (pH 4.5–8.6) supplemented with 5% DMSO to each well, and then 300 μL of 30 μM compounds in 0.1 M phosphate buffer (pH 4.5–8.6) with 5% DMSO were added to the donor wells. The acceptor plate was then placed on top of the donor plate and incubated at 37 °C for 4 h without agitation. After the incubation, the plates were separated and the solutions from each well of both the acceptor plate and the donor plate were transferred to 96-well plates and mixed with acetonitrile. The final concentrations of compounds in both donor and acceptor wells, as well as the concentrations of the initial donor solutions, were analyzed using liquid chromatography-tandem mass spectrometry (LC-MS/MS). The permeability of the compounds was calculated as described in a previous study. […] Two technical replicates were performed.

Another data set relates to rodents. To be noted: high doses (up to 100 mg/kg/day), intraperitoneal or oral gavage; cited from earlier work.

`COc1ccc2cc3[n+](cc2c1OC)CCc1cc2c(cc1-3)OCO2` [berberine, reference compound]: the “levels of Tom20, Mfn2, HSP60 and ATP5a proteins” value in data set [1] (C2C12, 5 μM or 10 μM) is given as “not observed”. The “MITOL expression (western blot)” value in data set [1] (C2C12, 10 μM, berberrubine used as quinoid-type form) is reported as “did not increase”. Besides, the “mRNA levels of MITOL and Tom20” value in data set [2] is on record as “not observed”. Besides, the “mitochondrial abundance (mtDNA 16S rRNA or ND1 / nuclear HK2)” value in the data set with C2C12 cells is “did not induce MITOL expression or increase mitochondrial content”.
Turning to `COc1ccc2cc3n(cc-2c1=O)CCc1cc2c(cc1-3)OCO2` [berberrubine acetic acid salt], the solubility in data set [3] was no less than 30 mg/mL.
On to `O=C(O)c1cc(/N=N/c2ccc(S(=O)(=O)Nc3ccccn3)cc2)ccc1O` [sulfasalazine, reference compound], for which the Papp at 4 h in “PAMPA assay” is 0.084 ×10⁻⁶ cm/s.
With `COc1ccc2cc3[n+](cc2c1O)CCc1cc2c(cc1-3)OCO2` [berberrubine chloride], in the data set with rodents, the “hepatic toxicity in rodents” value was “hepatic toxicity” and the “renal toxicity in rodents” value is given as “renal toxicity”.
On to `Cc1cc(=O)n(-c2ccccc2)n1C` [antipyrine, reference compound], for which, in “PAMPA assay”, the Papp at 4 h came out at 24 ×10⁻⁶ cm/s.
Still for that read-out and setting: the value for `COCCc1ccc(OCC(O)CNC(C)C)cc1` (stereo not shown) [metoprolol, reference compound] was 3 ×10⁻⁶ cm/s.
